Experimental data reported in patent US20100063160A1, “POLYMORPHS OF O-DESMETHYL VENLAFAXINE SUCCINATE” (priority 2006, published 2010).

Legend:
[1] = relative stability of ODV succinate polymorphic forms; assay type: physicochemical; settings: compared with the other forms of ODV succinate
[2] = cited from earlier work
[3] = cited from earlier work; remark: listed apart in the source
[4] = in vivo; cited from earlier work
[5] = in vivo, po; cited from earlier work
norepinephrine uptake = settings: cited from earlier work
serotonin uptake = settings: cited from earlier work

With `CN(C)CC(c1ccc(O)cc1)C1(O)CCCCC1.O=C(O)CCC(=O)O` (centres unmarked) [Form II of ODV succinate, O-desmethyl venlafaxine (ODV) succinate monohydrate] the “stability of polymorphic form” value [1] was “most stable form”.

In the case of `CN(C)CC(c1ccc(O)cc1)C1(O)CCCCC1.O=C(O)CCC(=O)O` (centres unmarked) [ODV succinate, O-desmethyl venlafaxine (ODV) succinate], the solubility [2] is listed as “high”, the permeability [3] is listed as “high” and the “absorption in the gastrointestinal tract” value [4] is listed as “well absorbed”. For the same compound, the bioavailability [4] was “high” and the “incidence of nausea, vomiting, diarrhea, abdominal pain, headache, vasovagal malaise and/or trismus” value [5] was “lower incidence”.

In the case of `CN(C)CC(c1ccc(O)cc1)C1(O)CCCCC1` (centres unmarked) [ODV, 1-[2-(dimethylamino)-1-(4-hydroxyphenyl)ethyl]cyclohexanol], the norepinephrine uptake inhibition (norepinephrine uptake) is given as “inhibit” and the serotonin uptake inhibition (serotonin uptake) is given as “inhibit”.
